Assay results as given in US20250019382A1, “NOVEL INHIBITORS OF CYCLIN-DEPENDENT KINASES” (Origenis Gmbh, priority 2021, published 2025).

Biological target: T1, CDK9/CyclinT1 (Homo sapiens, UniProt P50750)
T1 construct: purchased ProQinase/Reaction Biology, USA #0371-0345-1
Assay: CDK9/T1 ADPGlo kinase assay
Format: biochemical
Conditions: CDK9/CyclinT1 6 nM, ATP 10 microM, PDKtide 40 microM, 120 min RT
Method: The testing compound was evaluated in 12 concentrations in a 1:3 dilution series, starting from 5microM as the highest concentration.
In a white 384 microplate (Greiner bio-one, Austria #784904,) with 2 microL of 3-fold concentrated CDK9/CyclinT1 (ProQinase/Reaction Biology, USA #0371-0345-1, LOT.: 012), final concentration (f.c.) 6 nM, in 1×kinase buffer, 2 microL of compound (3× fold concentrated in f.c. 1.66% DMSO/H2O) was added and incubated at Room Temperature (RT) for 10 min. Then 2 microL of Substrate/ATP-Mix (3×PDKtide f.c. 40 microM, SignalChem Biotech, Canada via Biozol, Eching, Germany #P10-58, LOT.: L2230-7 and 3×UltraPure ATP f.c. 10 microM (ADP Glo Kinase assay, Promega GmbH, Germany #V9102)) were added, mixed and incubated for 120 min at RT.
After incubation time, 5 microL of ADP Glo reagent (ready to use, ADP Glo Kinase assay, Promega GmbH, Germany #V9102) were added, mixed and incubated for 40 min at RT.
In the last step, 10 microL of ADP Glo Detection reagent (ready to use, ADP Glo Kinase assay, Promega GmbH, Germany #V9102) were added, mixed and incubated for 30 min at RT.
GloMax Discover GM3000 Reader (Promega GmbH, Germany 9700000249) was used for the readout.
The inhibitor concentration was plotted against the luminescence to determine the IC50 using XLFit 5.5 (IDBS, Guildford) to fit to a sigmoidal dose response curve with a variable slope.

T1 sequence (P50750 whole entry): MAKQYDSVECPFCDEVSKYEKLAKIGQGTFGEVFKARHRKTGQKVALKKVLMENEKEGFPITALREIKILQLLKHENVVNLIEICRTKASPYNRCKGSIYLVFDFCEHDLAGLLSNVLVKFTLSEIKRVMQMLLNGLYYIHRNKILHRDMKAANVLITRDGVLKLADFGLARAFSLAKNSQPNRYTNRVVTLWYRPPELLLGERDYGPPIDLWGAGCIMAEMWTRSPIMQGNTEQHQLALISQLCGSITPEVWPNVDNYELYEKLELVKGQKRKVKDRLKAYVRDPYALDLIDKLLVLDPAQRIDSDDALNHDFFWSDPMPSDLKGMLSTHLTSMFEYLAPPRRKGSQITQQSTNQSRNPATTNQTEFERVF
T1 sequence (O60563 whole entry partner): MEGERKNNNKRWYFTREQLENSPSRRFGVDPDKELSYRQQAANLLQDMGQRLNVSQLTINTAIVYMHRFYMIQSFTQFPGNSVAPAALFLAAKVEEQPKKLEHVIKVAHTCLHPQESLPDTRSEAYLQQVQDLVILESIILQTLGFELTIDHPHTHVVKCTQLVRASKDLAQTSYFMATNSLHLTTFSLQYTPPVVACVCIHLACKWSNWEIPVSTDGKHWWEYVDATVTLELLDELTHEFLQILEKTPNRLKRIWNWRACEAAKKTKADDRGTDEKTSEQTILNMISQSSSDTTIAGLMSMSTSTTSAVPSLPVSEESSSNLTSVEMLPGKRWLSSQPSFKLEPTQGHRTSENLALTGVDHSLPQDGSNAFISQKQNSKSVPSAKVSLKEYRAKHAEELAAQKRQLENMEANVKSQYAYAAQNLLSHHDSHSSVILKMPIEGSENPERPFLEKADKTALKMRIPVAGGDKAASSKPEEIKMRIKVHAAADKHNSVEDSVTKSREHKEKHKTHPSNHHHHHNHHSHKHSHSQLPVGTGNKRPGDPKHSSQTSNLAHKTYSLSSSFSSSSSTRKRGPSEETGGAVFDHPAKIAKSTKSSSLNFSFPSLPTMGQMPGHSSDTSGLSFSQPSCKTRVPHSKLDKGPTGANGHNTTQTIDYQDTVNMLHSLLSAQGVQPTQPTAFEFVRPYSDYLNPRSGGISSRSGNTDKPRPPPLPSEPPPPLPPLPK

Structure (SMILES) | IC50 [nM]
CC(C)(C#N)n1cc(Nc2nc(-c3c(F)cccc3Cl)nc3ccnn23)cn1 [Example #36, 2-(4-((2-(2-chloro-6-fluorophenyl)pyrazolo[1,5-a][1,3,5]triazin-4-yl)amino)-1H-pyrazol-1-yl)-2-methylpropanenitrile] | < 1000
NC1CC(Nc2nc(-c3c(F)cccc3F)nc3c(Cl)cnn23)C1 (stereo not drawn) [Example #129, (1r,3r)-N1-(8-chloro-2-(2,6-difluorophenyl)pyrazolo[1,5-a][1,3,5]triazin-4-yl)cyclobutane-1,3-diamine] | < 20
Cc1cc(C)c(CNc2nc(-c3c(F)cccc3F)nc3c(Cl)cnn23)cn1 [Example #145, 8-chloro-2-(2,6-difluorophenyl)-N-((4,6-dimethylpyridin-3-yl)methyl)pyrazolo[1,5-a][1,3,5]triazin-4-amine] | < 20
Fc1cccc(F)c1-c1nc(Nc2cnn(C3CCN(C4CC4)CC3)c2)n2nccc2n1 [Example #83, N-(1-(1-cyclopropylpiperidin-4-yl)-1H-pyrazol-4-yl)-2-(2,6-difluorophenyl)pyrazolo[1,5-a][1,3,5]triazin-4-amine] | < 200
CCOc1cc(Nc2nc(-c3c(F)cccc3Cl)nc3ccnn23)ccc1C1CCN(C)CC1 [Example #17, 2-(2-chloro-6-fluorophenyl)-N-(3-ethoxy-4-(1-methylpiperidin-4-yl)phenyl)pyrazolo[1,5-a][1,3,5]triazin-4-amine] | < 1000
N[C@H]1CC[C@@H](Nc2nc(-c3c(F)cccc3F)nc3c(Cl)cnn23)CC1 [Example #112, (1s,4s)-N1-(8-chloro-2-(2,6-difluorophenyl)pyrazolo[1,5-a][1,3,5]triazin-4-yl)cyclohexane-1,4-diamine] | < 200
CN1CCN(c2ccc(Nc3nc(-c4c(F)cccc4F)nc4ccnn34)cc2)CC1 [Example #38, 2-(2,6-difluorophenyl)-N-(4-(4-methylpiperazin-1-yl)phenyl)pyrazolo[1,5-a][1,3,5]triazin-4-amine] | < 1000
COc1cc(Nc2nc(-c3c(F)cccc3F)nc3ccnn23)ccc1N1CCC(N2CCN(C)CC2)CC1 [Example #62, 2-(2,6-difluorophenyl)-N-(3-methoxy-4-(4-(4-methylpiperazin-1-yl)piperidin-1-yl)phenyl)pyrazolo[1,5-a][1,3,5]triazin-4-amine] | < 1000
CN(CCCO)C1CCC(Nc2nc(-c3c(F)cccc3F)nc3c(Cl)cnn23)CC1 (stereo not drawn) [Example #134, 3-({4-[8-Chloro-2-(2,6-difluoro-phenyl)-pyrazolo[1,5-a][1,3,5]triazin-4-ylamino]-cyclohexyl}-methyl-amino)-propan-1-ol] | < 20
CCNC(=O)c1ccc(Nc2nc(-c3c(F)cccc3Cl)nc3ccnn23)cc1 [Example #24, 4-((2-(2-chloro-6-fluorophenyl)pyrazolo[1,5-a][1,3,5]triazin-4-yl)amino)-N-ethylbenzamide] | < 1000
Fc1cccc(F)c1-c1nc(Nc2cnn(C3CCN(C4CC4)CC3)c2)n2ncc(Cl)c2n1 [Example #99, 8-chloro-N-(1-(1-cyclopropylpiperidin-4-yl)-1H-pyrazol-4-yl)-2-(2,6-difluorophenyl)pyrazolo[1,5-a][1,3,5]triazin-4-amine] | < 200
O=C(NCC(F)(F)F)c1ccc(Nc2nc(-c3c(F)cccc3Cl)nc3ccnn23)cc1 [Example #22, 4-((2-(2-chloro-6-fluorophenyl)pyrazolo[1,5-a][1,3,5]triazin-4-yl)amino)-N-(2,2,2-trifluoroethyl)benzamide] | < 1000
N#Cc1cc(Nc2nc(-c3c(F)cccc3F)nc3ccnn23)ccc1N1CCOCC1 [Example #42, 5-((2-(2,6-difluorophenyl)pyrazolo[1,5-a][1,3,5]triazin-4-yl)amino)-2-morpholinobenzonitrile] | < 1000
CN1CCC(N2CCC(n3cc(Nc4nc(-c5c(F)cccc5F)nc5ccnn45)cn3)CC2)CC1 [Example #66, 2-(2,6-difluorophenyl)-N-(1-(1′-methyl-[1,4′-bipiperidin]-4-yl)-1H-pyrazol-4-yl)pyrazolo[1,5-a][1,3,5]triazin-4-amine] | < 200
Fc1cccc(F)c1-c1nc(N[C@H]2CC[C@H](N3CCOCC3)CC2)n2ncc(Br)c2n1 [Example #95, 8-bromo-2-(2,6-difluorophenyl)-N-((1r,4r)-4-morpholinocyclohexyl)pyrazolo[1,5-a][1,3,5]triazin-4-amine] | < 20
Fc1cccc(Cl)c1-c1nc(N[C@H]2CC[C@H](N3CCOCC3)CC2)n2nccc2n1 [Example #76, 2-(2-chloro-6-fluorophenyl)-N-((1r,4r)-4-morpholinocyclohexyl)pyrazolo[1,5-a][1,3,5]triazin-4-amine] | < 200
Fc1cccc(F)c1-c1nc(Nc2cnn(C3CCNCC3)c2)n2nccc2n1 [Example #74, 2-(2,6-difluorophenyl)-N-(1-(piperidin-4-yl)-1H-pyrazol-4-yl)pyrazolo[1,5-a][1,3,5]triazin-4-amine] | < 200
O=C(NC1CCOCC1)c1ccc(Nc2nc(-c3c(F)cccc3Cl)nc3ccnn23)cc1 [Example #25, 4-((2-(2-chloro-6-fluorophenyl)pyrazolo[1,5-a][1,3,5]triazin-4-yl)amino)-N-(tetrahydro-2H-pyran-4-yl)benzamide] | < 1000
CN(C)[C@@H]1CC[C@@H](Nc2nc(-c3c(F)cccc3F)nc3c(Cl)cnn23)C1 [Example #119, (1R,3R)-N1-(8-chloro-2-(2,6-difluorophenyl)pyrazolo[1,5-a][1,3,5]triazin-4-yl)-N3,N3-dimethylcyclopentane-1,3-diamine] | < 20
Fc1cccc(F)c1-c1nc(Nc2cnn(C3CCN(C4CCOCC4)CC3)c2)n2nccc2n1 [Example #67, 2-(2,6-difluorophenyl)-N-(1-(1-(tetrahydro-2H-pyran-4-yl)piperidin-4-yl)-1H-pyrazol-4-yl)pyrazolo[1,5-a][1,3,5]triazin-4-amine] | < 200
CCOc1cc(Nc2nc(-c3c(F)cccc3Cl)nc3ccnn23)ccc1N1CCN(C)CC1 [Example #32, 2-(2-chloro-6-fluorophenyl)-N-(3-ethoxy-4-(4-methylpiperazin-1-yl)phenyl)pyrazolo[1,5-a][1,3,5]triazin-4-amine] | < 1000
N#Cc1cnn2c(Nc3cnn(C4CCN(C5CCOCC5)CC4)c3)nc(-c3c(F)cccc3F)nc12 [Example #88, 2-(2,6-difluorophenyl)-4-((1-(1-(tetrahydro-2H-pyran-4-yl)piperidin-4-yl)-1H-pyrazol-4-yl)amino)pyrazolo[1,5-a][1,3,5]triazine-8-carbonitrile] | < 200
Fc1cccc(F)c1-c1nc(N[C@H]2CC[C@@H](N3CCCCC3)CC2)n2ncc(Cl)c2n1 [Example #113, 8-chloro-2-(2,6-difluorophenyl)-N-((1s,4s)-4-(piperidin-1-yl)cyclohexyl)pyrazolo[1,5-a][1,3,5]triazin-4-amine] | < 1000
Fc1cccc(F)c1-c1nc(NC2CCC(N3CCOCC3)CC2)n2ncc(C(F)(F)F)c2n1 (stereo not drawn) [Example #111, 2-(2,6-difluorophenyl)-N-((1r,4r)-4-morpholinocyclohexyl)-8-(trifluoromethyl)pyrazolo[1,5-a][1,3,5]triazin-4-amine] | < 200
Fc1cccc(F)c1-c1nc(Nc2cnn(C3CCN(C4CCOCC4)CC3)c2)n2ncc(Cl)c2n1 [Example #92, 8-chloro-2-(2,6-difluorophenyl)-N-(1-(1-(tetrahydro-2H-pyran-4-yl)piperidin-4-yl)-1H-pyrazol-4-yl)pyrazolo[1,5-a][1,3,5]triazin-4-amine] | < 20
CCN(CCO)CCCC(C)Nc1nc(-c2c(F)cccc2F)nc2c(Cl)cnn12 (stereo not drawn) [Example #107, 2-((4-((8-chloro-2-(2,6-difluorophenyl)pyrazolo[1,5-a][1,3,5]triazin-4-yl)amino)pentyl)(ethyl)amino)ethan-1-ol] | < 20
Fc1cccc(F)c1-c1nc(Nc2cnn(C3CCNCC3)c2)n2ncc(Cl)c2n1 [Example #103, 8-chloro-2-(2,6-difluorophenyl)-N-(1-(piperidin-4-yl)-1H-pyrazol-4-yl)pyrazolo[1,5-a][1,3,5]triazin-4-amine] | < 20
Fc1cccc(Cl)c1-c1nc(Nc2cnn(C3CCN(C4CCOCC4)CC3)c2)n2nccc2n1 [Example #71, 2-(2-chloro-6-fluorophenyl)-N-(1-(1-(tetrahydro-2H-pyran-4-yl)piperidin-4-yl)-1H-pyrazol-4-yl)pyrazolo[1,5-a][1,3,5]triazin-4-amine] | < 200
CN1CCN(C2CCN(c3ccc(Nc4nc(-c5c(F)cccc5F)nc5ccnn45)cc3)CC2)CC1 [Example #46, 2-(2,6-difluorophenyl)-N-(4-(4-(4-methylpiperazin-1-yl)piperidin-1-yl)phenyl)pyrazolo[1,5-a][1,3,5]triazin-4-amine] | < 1000
Fc1cccc(F)c1-c1nc(Nc2cnn(C3CCN(C4CCOCC4)CC3)c2Cl)n2nccc2n1 [Example #73, N-(5-chloro-1-(1-(tetrahydro-2H-pyran-4-yl)piperidin-4-yl)-1H-pyrazol-4-yl)-2-(2,6-difluorophenyl)pyrazolo[1,5-a][1,3,5]triazin-4-amine] | < 1000
